Format in all cases: biochemical
In one assay the target is T1, MMP-2 (Gelatinase A) (Homo sapiens, UniProt P08253).
T1 sequence (P08253 110-660): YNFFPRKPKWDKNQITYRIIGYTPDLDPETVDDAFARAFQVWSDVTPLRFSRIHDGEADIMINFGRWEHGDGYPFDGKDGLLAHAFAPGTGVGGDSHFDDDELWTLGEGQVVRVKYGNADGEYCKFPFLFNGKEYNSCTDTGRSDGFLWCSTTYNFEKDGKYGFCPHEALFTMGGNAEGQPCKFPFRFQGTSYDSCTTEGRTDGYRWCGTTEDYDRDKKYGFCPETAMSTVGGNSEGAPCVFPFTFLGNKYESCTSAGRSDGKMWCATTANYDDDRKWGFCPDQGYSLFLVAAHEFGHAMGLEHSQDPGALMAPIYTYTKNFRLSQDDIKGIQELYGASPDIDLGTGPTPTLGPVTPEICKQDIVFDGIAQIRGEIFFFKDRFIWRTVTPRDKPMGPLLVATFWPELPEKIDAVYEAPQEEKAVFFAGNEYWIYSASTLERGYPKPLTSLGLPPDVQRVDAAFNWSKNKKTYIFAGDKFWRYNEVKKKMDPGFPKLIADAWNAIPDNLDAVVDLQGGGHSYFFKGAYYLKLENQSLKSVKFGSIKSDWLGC
Kind of assay: inhibition of MMP-2 hydrolysis of thiopeptolide substrate. As to conditions: thiopeptolide substrate, pH 6.0, 22° C.; read-out: (IC50) MMP-2.

For another assay, the target named is MMP-3 (stromelysin) (Homo sapiens, UniProt P08254). The assay is described as follows: inhibition of MMP-3 hydrolysis of thiopeptolide substrate. The note with it: thiopeptolide substrate, pH 6.0, 22° C.; read-out: (IC50) MMP-3. The source says:
The assays measure the amount by which a test compound reduces the hydrolysis of a thiopeptolide substrate caused by a matrix metalloproteinase enzyme. Such assays are described in detail by Ye, et al., in Biochemistry, 1992;31(45):11231-11235).
Thiopeptolide substrates show virtually no decomposition or hydrolysis in the absence of a matrix metalloproteinase enzyme. A typical thiopeptolide substrate commonly utilized for assays is Ac-Pro-Leu-Gly-thioester-Len-Len-Gly-O Et. […] Assays are carried out with and without matrix metalloproteinase inhibitor compounds, and the amount of hydrolysis is compared for a determination of inhibitory activity of the test compounds.
In the table, MMP-1 refers to interstitial collagenase; MMP-2 refers to Gelatinase A; MMP-3 refers to stromelysin; MMP-7 refers to matrilysin; and MMP-13 refers to Collagenase 3.

A further assay deals with MMP-13 (Collagenase 3) (Homo sapiens, UniProt P45452). The assay is described as follows: inhibition of MMP-13 hydrolysis of thiopeptolide substrate. As to conditions: thiopeptolide substrate, pH 6.0, 22° C.; read-out: (IC50) MMP-13. From the text: The invention compounds have been evaluated in standard in vitro assays and shown to be potent inhibitors of several matrix metalloproteinase enzymes.

Molecules are shown by their SMILES.

The IC50 is the point on the concentration scale where inhibition reaches its midpoint.

MMP-3 (stromelysin), sequence (P08254 100-477): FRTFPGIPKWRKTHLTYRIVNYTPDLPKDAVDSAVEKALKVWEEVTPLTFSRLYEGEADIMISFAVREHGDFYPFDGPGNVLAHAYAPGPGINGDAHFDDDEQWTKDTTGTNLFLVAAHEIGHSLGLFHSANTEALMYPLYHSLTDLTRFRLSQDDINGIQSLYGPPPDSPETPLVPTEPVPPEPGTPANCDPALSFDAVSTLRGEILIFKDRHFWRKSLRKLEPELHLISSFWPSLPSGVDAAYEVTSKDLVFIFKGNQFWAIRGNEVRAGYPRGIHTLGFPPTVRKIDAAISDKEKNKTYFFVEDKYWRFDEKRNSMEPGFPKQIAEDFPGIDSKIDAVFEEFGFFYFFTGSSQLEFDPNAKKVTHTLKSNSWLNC

As to `O=C(CC(NC(=O)c1ccco1)C(=O)O)c1ccc2oc3ccccc3c2c1` (stereo not drawn) [Example 41, 4-Dibenzofuran-2-yl-2-[(furan-2-carbonyl)-amino]-4-oxo-butyric acid], the figures for the IC50 on MMP-2 (Gelatinase A), at MMP-3 (stromelysin) and at MMP-13 (Collagenase 3) were 140 nM, 1500 nM and 12000 nM, respectively.
As for `CCCCCCCCCCCC(=O)N[C@@H](CC(=O)c1ccc2oc3ccccc3c2c1)C(=O)O` [Example 12, (S)-4-Dibenzofuran-2-yl-4-oxo-2-(dodecanoylamino)-butyric acid], the values for the IC50 on MMP-2 (Gelatinase A) and at MMP-3 (stromelysin) were 8800 nM and 4000 nM, respectively.
In the case of `O=C(C[C@@H](NC(=O)C(F)(F)F)C(=O)O)c1ccc2oc3ccccc3c2c1` [Example 2, (R)-4-Dibenzofuran-2-yl-4-oxo-2-(2,2,2-trifluoroacetylamino)-butyric acid], the half-inhibitory concentration (IC50) on MMP-2 (Gelatinase A) amounted to 44000 nM; at MMP-3 (stromelysin), 78000 nM.
Regarding `O=C(CC(NC(=O)c1ccc2ccccc2c1)C(=O)O)c1ccc2oc3ccccc3c2c1` (stereo not drawn) [Example 22, 4-Dibenzofuran-2-yl-2-[(naphthalene-2-carbonyl)-amino] -4-oxo-butyric acid], the IC50 on MMP-2 (Gelatinase A) stood at 1700 nM; at MMP-3 (stromelysin), 6900 nM; at MMP-13 (Collagenase 3), 28000 nM.
Consider `O=C(CC(NC(=O)C12CC3CC(CC(C3)C1)C2)C(=O)O)c1ccc2oc3ccccc3c2c1` (stereo not drawn) [Example 26, 2-[(Adamantane-1-carbonyl)-amino]-4-dibenzofuran-2-yl-4-oxo-butyric acid], for which the half-inhibitory concentration (IC50) on MMP-2 (Gelatinase A) worked out at 2100 nM; on MMP-3 (stromelysin) it was 9200 nM; at MMP-13 (Collagenase 3), 40000 nM.
Taken in the same sequence, the figures for `O=C(O)[C@H](CC(=NO)c1ccc2oc3ccccc3c2c1)NC(=O)C(F)(F)F` [Example 16, (S)-4-Dibenzofuran-2-yl-4-hydroxyimino-2-(2,2,2-trifluoroacetylamino)-butyric acid] were 720 nM, 6600 nM and 2400 nM.
`O=C(CC(NC(=O)c1ccncc1)C(=O)O)c1ccc2oc3ccccc3c2c1` (stereo not drawn) [Example 24, 4-Dibenzofuran-2-yl-4-oxo-2-[(pyridine-4-carbonyl)-amino]-butyric acid]: the figures for the IC50 at MMP-2 (Gelatinase A), on MMP-3 (stromelysin) and at MMP-13 (Collagenase 3) were 3200 nM, 13000 nM and 41000 nM, respectively.
With `O=C(CC(NC(=O)c1cnc2ccccc2n1)C(=O)O)c1ccc2oc3ccccc3c2c1` (stereo not drawn) [Example 44, 4-Dibenzofuran-2-yl-4-oxo-2-[(quinoxaline-2-carbonyl)-amino]-butyric acid], the IC50 on MMP-2 (Gelatinase A) was 310 nM; at MMP-3 (stromelysin), 3500 nM; on MMP-13 (Collagenase 3), 27000 nM.
The corresponding values for `Cc1nn(-c2ccccc2)nc1C(=O)NC(CC(=O)c1ccc2oc3ccccc3c2c1)C(=O)O` (stereo not drawn) [Example 55, 4-Dibenzofuran-2-yl-2-[(5-methyl-2-phenyl-2H-[1,2,3]triazole-4-carbonyl)-amino]-4-oxo-butyric acid] are 1800 nM, 14000 nM and 70000 nM.
With `Cc1ccc(C(=O)NC(CC(=O)c2ccc3oc4ccccc4c3c2)C(=O)O)cc1` (stereo not drawn) [Example 29, 4-Dibenzofuran-2-yl-2-(4-methyl-benzoylamino)-4-oxo-butyric acid], the results for the 50% inhibitory concentration (IC50) on MMP-3 (stromelysin) and on MMP-13 (Collagenase 3) were 390 nM and 5200 nM, respectively.
`O=C(CC(NC(=O)c1ccccn1)C(=O)O)c1ccc2oc3ccccc3c2c1` (stereo not drawn) [Example 45, 4-Dibenzofuran-2-yl-4-oxo-2-[(pyridine-2-carbonyl)-amino]-butyric acid]: the IC50 turned out to be 110 nM on MMP-2 (Gelatinase A), 1000 nM at MMP-3 (stromelysin) and 15000 nM at MMP-13 (Collagenase 3).
In the case of `O=C(CC(NC(=O)C1CCCCC1)C(=O)O)c1ccc2oc3ccccc3c2c1` (stereo not drawn) [Example 50, 2-(Cyclohexanecarbonyl-amino)-4-dibenzofuran-2-yl-4-oxo-butyric acid], the IC50 came to 150 nM at MMP-2 (Gelatinase A), 700 nM on MMP-3 (stromelysin) and 9100 nM at MMP-13 (Collagenase 3).
On to `O=C(CC(NC(=O)c1ccc(Br)cc1)C(=O)O)c1ccc2oc3ccccc3c2c1` (stereo not drawn) [Example 42, 2-(4-Bromo-benzoylamino)-4-dibenzofuran-2-yl-4-oxo-butyric acid], for which the 50% inhibitory concentration (IC50) at MMP-2 (Gelatinase A) was 180 nM; on MMP-3 (stromelysin), 1300 nM; at MMP-13 (Collagenase 3), 17000 nM.
On to `O=C(C=Cc1ccccc1)NC(CC(=O)c1ccc2oc3ccccc3c2c1)C(=O)O` (stereo not drawn) [Example 25, 4-Dibenzofuran-2-yl-4-oxo-2-(3-phenyl-acryloylamino)-butyric acid], for which the values for the half-inhibitory concentration (IC50) at MMP-2 (Gelatinase A), at MMP-3 (stromelysin) and at MMP-13 (Collagenase 3) were 110 nM, 800 nM and 8400 nM, respectively.
On to `O=C(COc1ccccc1)NC(CC(=O)c1ccc2oc3ccccc3c2c1)C(=O)O` (stereo not drawn) [Example 28, 4-Dibenzofuran-2-yl-4-oxo-2-(2-phenoxy-acetylamino)-butyric acid], for which the figures for the 50% inhibitory concentration (IC50) on MMP-2 (Gelatinase A), at MMP-3 (stromelysin) and at MMP-13 (Collagenase 3) were 180 nM, 510 nM and 12000 nM, respectively.
For the compound `O=C(CC(NC(=O)c1c(F)c(F)c(F)c(F)c1F)C(=O)O)c1ccc2oc3ccccc3c2c1` (stereo not drawn) [Example 40, 4-Dibenzofuran-2-yl-4-oxo-2-(2,3,4,5,6-pentafluoro-benzoylamino)-butyric acid], the half-inhibitory concentration (IC50) worked out at 5200 nM at MMP-2 (Gelatinase A) and 28000 nM on MMP-3 (stromelysin).
In the case of `O=C(CC(NC(=O)c1ccc(Cl)cc1)C(=O)O)c1ccc2oc3ccccc3c2c1` (stereo not drawn) [Example 39, 2-(4-Chloro-benzoylamino)-4-dibenzofuran-2-yl-4-oxo-butyric acid], the IC50 on MMP-2 (Gelatinase A) worked out at 150 nM; at MMP-3 (stromelysin), 1200 nM; on MMP-13 (Collagenase 3), 12000 nM.
As for `O=C(CCCCCCc1ccccc1)N[C@@H](CC(=O)c1ccc2oc3ccccc3c2c1)C(=O)O` [Example 9, (S)-4-Dibenzofuran-2-yl-4-oxo-2-(7-phenylheptanoylamino)-butyric acid], the figures for the concentration for half-maximal inhibition (IC50) on MMP-2 (Gelatinase A) and on MMP-3 (stromelysin) were 510 nM and 3900 nM, respectively.
For `CCCCc1ccc(C(=O)NC(CC(=O)c2ccc3oc4ccccc4c3c2)C(=O)O)cc1` (stereo not drawn) [Example 34, 2-(4-Butyl-benzoylamino)-4-dibenzofuran-2-yl-4-oxo-butyric acid], the figures for the IC50 on MMP-2 (Gelatinase A), at MMP-3 (stromelysin) and at MMP-13 (Collagenase 3) were 870 nM, 5400 nM and 49000 nM, respectively.
For the compound `O=C(CC(NC(=O)C(c1ccccc1)c1ccccc1)C(=O)O)c1ccc2oc3ccccc3c2c1` (stereo not drawn) [Example 18, 4-Dibenzofuran-2-yl-2-diphenylacetylamino-4-oxo-butyric acid], the IC50 on MMP-2 (Gelatinase A) was 100 nM; at MMP-3 (stromelysin), 360 nM; on MMP-13 (Collagenase 3), 1100 nM.
In the case of `CCC(C(=O)NC(CC(=O)c1ccc2oc3ccccc3c2c1)C(=O)O)c1ccccc1` (stereo not drawn) [Example 54, 4-Dibenzofuran-2-yl-4-oxo-2-(2-phenylbutyrylamino)-butyric acid], the IC50 at MMP-2 (Gelatinase A) was 60 nM; on MMP-3 (stromelysin), 250 nM; at MMP-13 (Collagenase 3), 1500 nM.
For the compound `CS(=O)(=O)N[C@@H](CC(=O)c1ccc2oc3ccccc3c2c1)C(=O)O` [Example 13, (S)-4-Dibenzofuran-2-yl-4-oxo-2-methanesulfonylamino-butyric acid], the concentration for half-maximal inhibition (IC50) at MMP-2 (Gelatinase A) worked out at 280 nM; at MMP-3 (stromelysin), 9200 nM.
For `CC(C)c1cccc(C(C)C)c1NC(=O)N[C@@H](CC(=O)c1ccc2oc3ccccc3c2c1)C(=O)O` [Example 5, (S)-4-Dibenzofuran-2-yl-2-[3-(2,6-diisopropyl-phenyl)-ureido]-4-oxo-butyric acid], the IC50 on MMP-2 (Gelatinase A) was determined as 320 nM; at MMP-3 (stromelysin) it was 1700 nM.
As to `CC(=O)N[C@@H](CC(=O)c1ccc2oc3ccccc3c2c1)C(=O)O` [Example 4, (S)-2-Acetylamino-4-dibenzofuran-2-yl-4-oxo-butyric acid], the half-inhibitory concentration (IC50) at MMP-3 (stromelysin) came out at 1600 nM.
As to `O=C(C[C@H](NC(=O)c1ccc(-c2ccccc2)cc1)C(=O)O)c1ccc2oc3ccccc3c2c1` [Example 10, (S)-2-[(Biphenyl-4-carbonyl)-amino]-4-dibenzofuran-2-yl-4-oxo-butyric acid], the results for the IC50 at MMP-2 (Gelatinase A) and on MMP-3 (stromelysin) were 1640 nM and 9400 nM, respectively.
Regarding `O=C(C[C@H](NC(=O)c1ccccc1)C(=O)O)c1ccc2oc3ccccc3c2c1` [Example 6, (S)-2-Benzoylamino-4-dibenzofuran-2-yl-4-oxo-butyric acid], the results for the concentration for half-maximal inhibition (IC50) at MMP-2 (Gelatinase A) and on MMP-3 (stromelysin) were 180 nM and 910 nM, respectively.
Regarding `O=C(C[C@H](NC(=O)C(F)(F)F)C(=O)O)c1ccc2c(c1)Cc1ccccc1-2` [Example 15, (S)-4-(9H-fluoren-2-yl)-4-oxo-2-(2,2,2-trifluoroacetylamino)-butyric acid], the half-maximal inhibitory concentration (IC50) on MMP-2 (Gelatinase A) was determined as 12500 nM; at MMP-3 (stromelysin) it was 76500 nM.

The values are drawn from patent publication US6020366A, “Butyric acid matrix metalloproteinase inhibitors” (priority 1998, dated 2000).
